What all share (type): in vivo
The test system of experiment [1] is APP/PS1 mice. Description: Aβ immunohistochemistry, Aβ burden in neocortex. The following applies: 5 mg/kg/day i.p. for 4 weeks, compared to vehicle-treated animals. How it is done:
(§1) Animals and treatment: The experiments were carried out on male APP/PS1 mice, which express the human mutated forms APPswe and PS1dE9, and wild-type (WT) littermates which were 5 month-old at the beginning of the study. In the present work, identification of transgenic mice was carried out as follows: genomic DNA was isolated from 1-cm tail clips and genotyped by polymerase chain reaction (PCR) technique using the PCR conditions proposed by Jackson Laboratory. Animals were maintained under standard animal housing conditions in a normal 12-h dark-light cycle with free access to food and water. The sample size for experimentation was computed using the Power and Precision software (Biostat, Englewood, NJ, USA), assuming a power of 95% and no missing data. Animal procedures were conducted according to ethical guidelines (European Community Council Directive 86/609/EEC) and approved by the local ethical committee (UB-IDIBELL). The compounds (5 mg/kg) were dissolved in 1% DMSO and 99% saline, and were injected intraperitoneally (i.p.) in a volume of 10 mL/kg body weight. Animals were treated once daily for 4 weeks with (αS,7R,11R)-(Ia), (αS,7S,11S)-(Ia), (±)-(Ib), (±)-(Ic) or the corresponding vehicle (VEH) (wild-type, n = 6; APP/PS1, n = 6, each group). After 2 days of washing period, animals were subjected to behavioral evaluation.
Tissue Collection: At the end of the behavioral testing, the animals were sacrificed and their brains were removed. One brain hemisphere was dissected on ice, immediately frozen and stored at -80 °C until processing for protein or RNA quantification. The other brain hemisphere was fixed in 4% paraformaldehyde and processed for immunohistochemistry.
Aβ immunohistochemistry: Tissue samples were embedded in paraffin and coronal sections (4 µm) were cut with a microtome. […] No immunostaining was detected in these sections. […] The Aβ burden in neocortex was calculated as the percentage of the Aβ deposition area with respect to the total area in 9 representative pictures, corresponding to the main regions where Aβ deposition is observed in APP/PS1 mice. Sections from all the APP/PS1 animals were evaluated by using the Analysis tool of the software Adobe® Photoshop® CS4.
(§2) Densitometric quantification of glia around Aβ plaques: Astrocytic and microglial responses to Aβ deposition were evaluated by densitometric quantification of GFAP and Iba1 protein expression levels around Aβ plaques, respectively. […] Statistical analysis: Data were analyzed by two-way ANOVA with genotype and treatment or age as between factors, followed by Tukey's post hoc test when required. Aβ and glia quantifications were analyzed by one-way ANOVA followed by Tukey's post hoc test when required.

In experiment [2] the test system is APP/PS1 mice. Description: glial (GFAP) and Aβ double-immunofluorescence, astrocytes around Aβ plaques. The following applies: 5 mg/kg i.p. once daily for 4 weeks, FIG 3. The protocol:
as §1, with “The compounds (5 mg/kg) were dissolved in 1% DMSO and 99% saline, and were injected intraperitoneally (i.p.) in a volume of 10 mL/kg body weight. Animals were treated once daily for 4 weeks with (αS,7R,11R)-(Ia), (αS,7S,11S)-(Ia), (±)-(Ib), (±)-(Ic) or the corresponding vehicle (VEH) (wild-type, n = 6; APP/PS1, n = 6, each group). After 2 days of washing period, animals were subjected to behavioral evaluation.” left out
(§3) Tissue Collection: At the end of the behavioral testing, the animals were sacrificed and their brains were removed. One brain hemisphere was dissected on ice, immediately frozen and stored at -80 °C until processing for protein or RNA quantification. […]
(§4) Glial and Aβ double-immunofluorescence: De-waxed sections were stained with a saturated solution of Sudan black B (Merck) for 30 min to block the autofluorescence of lipofuscin granules present in cell bodies, then rinsed in 70% ethanol and washed in distilled water. […] After washing, the sections were incubated with Alexa488 or Alexa546 (1:400, Molecular Probes) fluorescence secondary antibodies against the corresponding host species. […]
Densitometric quantification of glia around Aβ plaques: Astrocytic and microglial responses to Aβ deposition were evaluated by densitometric quantification of GFAP and Iba1 protein expression levels around Aβ plaques, respectively. […] Statistical analysis: Data were analyzed by two-way ANOVA with genotype and treatment or age as between factors, followed by Tukey's post hoc test when required. […]

The subject of experiment [3] is APP/PS1 mice. Nature of the experiment: two-object recognition test (V-maze), cognitive performance. The following applies: male APP/PS1 mice, 5 month-old, 5 mg/kg i.p. once daily for 4 weeks, FIG 1; for memory impairment in the two-object recognition test: tested after 2 days of washing period, 5 mg/kg. The protocol: as §1, with “The compounds (5 mg/kg) were dissolved in 1% DMSO and 99% saline, and were injected intraperitoneally (i.p.) in a volume of 10 mL/kg body weight. Animals were treated once daily for 4 weeks with (αS,7R,11R)-(Ia), (αS,7S,11S)-(Ia), (±)-(Ib), (±)-(Ic) or the corresponding vehicle (VEH) (wild-type, n = 6; APP/PS1, n = 6, each group). After 2 days of washing period, animals were subjected to behavioral evaluation.” left out
Behavioral evaluation of cognitive performance: The two-object recognition test was performed. […] On the second day, mice were placed for 9 min in the maze, where two identical objects were situated at the end of the arms, and the time that the mice spent exploring each object was recorded. […] The time that the animals spent exploring the two objects was recorded and an object recognition index was calculated as the difference between the time spent exploring the novel and the familiar object, divided by the total time spent exploring the two objects.
as §2

Experiment [4] relates to APP/PS1 mice. Nature of the experiment: glial (Iba1) and Aβ double-immunofluorescence, microglia around Aβ plaques. The following applies: 5 mg/kg i.p. once daily for 4 weeks, compared to vehicle-treated APP/PS1 animals, FIG 4. How it is done:
Animals and treatment: The experiments were carried out on male APP/PS1 mice, which express the human mutated forms APPswe and PS1dE9, and wild-type (WT) littermates which were 5 month-old at the beginning of the study. In the present work, identification of transgenic mice was carried out as follows: genomic DNA was isolated from 1-cm tail clips and genotyped by polymerase chain reaction (PCR) technique using the PCR conditions proposed by Jackson Laboratory. Animals were maintained under standard animal housing conditions in a normal 12-h dark-light cycle with free access to food and water. […]
as §3, §4

Entries after “also recorded” stand apart in the source; their conditions may differ.

`CCC(C(=O)NCCCCCCCNc1c2c(nc3cc(Cl)ccc13)CCCC2)N1CCCC1=O` (racemic) [(±)-(Ib), (±)-N-{7-[(6-chloro-1,2,3,4-tetrahydroacridin-9-yl)amino]heptyl}-2-(2-oxopyrrolidin-1-yl)butanamide]: in the experiment on APP/PS1 mice [1] (FIG 2), the “Aβ burden in the cortex” value is reported as “tends to reduce”. Also, the “number of astrocytes around Aβ plaques (GFAP/Aβ)” value (from here on “number … (GFAP/Aβ)”) in the experiment with APP/PS1 mice [2] was “produced a tendency to reduce”.

For `CCC(C(=O)NCCCCCCCNc1c2c(nc3ccccc13)CCCC2)N1CCCC1=O` (racemic) [(±)-(Ic), (±)-N-{7-[(1,2,3,4-tetrahydroacridin-9-yl)amino]heptyl}-2-(2-oxopyrrolidin-1-yl)butanamide], the recognition index entry in the experiment with APP/PS1 mice [3] (compared to vehicle-treated animals) is “significantly increased”. Moreover, the “memory impairment in the two-object recognition test” value with APP/PS1 mice [3] is “did not exhibit memory impairment; also recorded: reverse the memory impairment”. The “Aβ burden in the cortex” value in the experiment with APP/PS1 mice [1] (FIG 2) is recorded as “tends to reduce”.

Take `CC[C@@H](C(=O)NCCCCCCCNc1c2c(nc3cc(Cl)ccc13)C[C@@H]1C=C(C)C[C@H]2C1)N1CCCC1=O` [(αS,7R,11R)-(Ia), (+)-(αS,7R,11R)-N-{7-[(3-chloro-6,7,10,11-tetrahydro-9-methyl-7,11-methanocycloocta[b]quinolin-12-yl)amino]heptyl}-2-(2-oxopyrrolidin-1-yl)butanamide]: the “Aβ burden in the cortex” value in the experiment with APP/PS1 mice [1] (FIG 2) was “tends to reduce”. The “number … (GFAP/Aβ)” value with APP/PS1 mice [2] is “produced a tendency to reduce”.

Take `CC[C@@H](C(=O)NCCCCCCCNc1c2c(nc3cc(Cl)ccc13)C[C@H]1C=C(C)C[C@@H]2C1)N1CCCC1=O` [(αS,7S,11S)-(Ia), (-)-(αS,7S,11S)-N-{7-[(3-chloro-6,7,10,11-tetrahydro-9-methyl-7,11-methanocycloocta[b]quinolin-12-yl)amino]heptyl}-2-(2-oxopyrrolidin-1-yl)butanamide]: the “memory impairment in the two-object recognition test” value in the experiment on APP/PS1 mice [3] is “did not exhibit memory impairment; also recorded: reverse the memory impairment”. Further, the “number of microglial cells associated with Aβ plaques (Iba1/Aβ)” value in the experiment on APP/PS1 mice [4] is reported as “decreased microglial reaction”. In the experiment with APP/PS1 mice [1] (FIG 2, 5 mg/kg/day), the “Aβ burden in the cortex” value is “tends to reduce; also recorded: reduction in the cortical Aβ plaques deposition”. Moreover, the “number … (GFAP/Aβ)” value in the experiment with APP/PS1 mice [2] was “produced a tendency to reduce”.
